In US20260191864A1, “Uses of Hydroimidazopyridopyrimidinone Derivatives for Managing Aneurysms or Other Vascular Conditions or Diseases” (Emory University, priority 2022, published 2026):

Tests used:
vascular smooth muscle = vascular smooth muscle differentiation in vivo (ACTA2 smooth muscle actin staining); conditions: mice, ACTA2 staining (FIG. 1D)
aortic aneurysms = conditions: mice; aortic diameter at day 14 vs baseline (FIGS. 1A-1C)
Text: It is contemplated that VSMC phenotypic modulation is responsible for foam cell formation during atherosclerosis.
Data represents percentage of maximal aortic dilation on day 14 of each animal. The recording and subsequent analysis were blinded to the assignment of the treatment regimen.
Images were quantified using ImageJ plus/color deconvolution plugin.

Q: What does the source list for Cc1ccccc1CN1C(=O)C2=C(CCN(Cc3ccccc3)C2)N2CCN=C12 [ONC201, 7-benzyl-4-(2-methylbenzyl)-2,4,6,7,8,9-hexahydroimidazo[1,2-a]pyrido[3,4-e]pyrimidin-5 (1H)-one]?
A: vascular smooth muscle differentiation (vascular smooth muscle): induces vascular smooth muscle differentiation in vivo; formation of aortic aneurysms (aortic aneurysms): inhibits the formation of aortic aneurysms in mice
